This is an account of results in US11432547B2, “Inhibitors of GRB2-associated binding protein 1 (GAB1) and methods of treating cancer using the same” (Arizona Board of Regents on Behalf of the University of …, priority 2014, dated 2022).

Where “and” joins values, the source holds several entries; their conditions need not be identical. Equal values may be shown once. Read-outs that look alike come from different tables or passages of the source.

In general, inhibition refers to the drop in the measured response relative to a control, in per cent. The term IC50 denotes the midpoint of a concentration-inhibition curve. As usually defined, the Ki is a measure of affinity in units of concentration, obtained from inhibition or displacement.

Series [1] relates to GAB1 Y627 phosphorylation. Briefly: Inhibition of GAB1 Y627 phosphorylation in T47D cells. The format is cell-based. Conditions: Homo sapiens, Y627, 20 μM compound 4 hr, HGF stimulated, read-out: % pGAB1 inhibition. The protocol: For all biological assays, hit compounds were added at 20 μM concentration directly into the culture media of the cells for 4 hr following a 16 hr incubation of T47D cells without FBS. Cells were stimulated with HGF for 20 min at 50 ng/ml. Following this treatment, cells were lysed and equal amounts of total cell lysate were loaded on a pSer^312-IRS-1/Total IRS-1 Meso Scale Discovery plate as described by the manufacturer. The plate was read using a Sector™Imager 2400A instrument (Meso Scale Discovery protein profiling system, Gaithersburg, Md.). For the measurement of GAB1 phosphorylation, T47D cells were treated as for the phosphorylation of IRS1 evaluation. […] Each experiment was performed at least three times.

Series [2] deals with MDA-MB-231 breast cancer cell line. Nature of the series: Cellular proliferation assay (MTT), MDA-MB-231. Format: cell-based, human. The note with it: for IC50: Homo sapiens, MDA-MB-231, 96 h, 4 days growth, MTT, IA: Inactive. On the procedure:
(§1) Two human breast cancer Cell lines and one normal breast cell line were used for this study: T47D ductal missing highlighted section in original pg. 26Type Culture Collection, Rockville, Md.). T47D and MDA-MB-231 cells were maintained in bulk culture in Dulbecco's modified Eagle medium (DMEM) supplemented with 10% heat-inactivated fetal bovine serum (FBS), 4.5 g/L glucose, 100 U/mL penicillin and […] streptomycin in a 5% CO2 atmosphere. MCF-10A cells were maintained in MEGM with other conditions same as the cancer cell lines. […] Cells were confirmed to be mycoplasma free by testing them with an ELISA kit (Roche-Boehringer Mannheim, Indianapolis, Ind.). The hit compounds were freshly prepared in DMSO at a stock concentration of 10 mM. For the evaluation of cellular proliferation, a standard 96-well micro-cytotoxicity assay was performed as described in reference. Briefly, the assay was set up by plating cells at 5,000-10,000 cells per well (depending on cell doubling time) for a growth period of 4 days. The identified hits were added directly to the media, dissolved in DMSO at various concentrations ranging from 1 to 200 μM. The endpoint was spectrophotometric determination of the reduction of 3-(4,5-dimethylthiazol-2-yl)-2,5-diphenyltetrazolium bromide. All assays were performed in triplicates.

Series [3] deals with T1, GAB1 PH domain (Homo sapiens, UniProt Q13480).
T1 sequence (Q13480 5-116 limits assumed): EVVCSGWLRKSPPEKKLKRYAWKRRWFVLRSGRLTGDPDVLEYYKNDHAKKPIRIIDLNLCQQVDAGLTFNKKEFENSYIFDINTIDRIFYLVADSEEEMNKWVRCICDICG
Nature of the series: SPR binding assay, GAB1 PH domain. Conditions: for Exp. ΔGbind: GAB1, derived from experimental KD or Ki, RT ln(KD). A general note: Surface plasmon resonance follows binding to a sensor surface in real time, without labels.

Series [4] deals with T47D breast cancer cell line. Nature of the series: Cellular proliferation assay (MTT), T47D. Conditions: for IC50: Homo sapiens, T47D, 96 h, 4 days growth, MTT, IA: Inactive. The format is cell-based, human. On the procedure: as §1
Series [5] has as its target T2, IRS1 PH domain (Homo sapiens, UniProt P35568).
T2 sequence (P35568 12-115 limits assumed): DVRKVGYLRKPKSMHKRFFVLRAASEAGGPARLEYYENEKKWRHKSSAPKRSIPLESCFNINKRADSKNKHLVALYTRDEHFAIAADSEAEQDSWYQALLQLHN
Nature of the series: SPR binding assay, IRS1 PH domain (selectivity). The note with it: derived from experimental KD, RT ln(KD).
Protocol: The DNA sequences of human GAB1 and IRS1 PH domain (IRS1 is for selectivity evaluation) were cloned into pGEX-4T1 inducible bacterial expression plasmid (GeneStorm, Invitrogen, Carlsbad, Calif.) transformed into BL21 (DE3) E. Coli. Expression and purification of the recombinant proteins were performed. Binding assays were performed using a Biacore 2000 instrument with the Biacore Control Software v3.2 and BIAevaluation v4.1 analysis software (Biacore, Piscataway, N.J.). Briefly, the PH domain GST-fusion proteins were immobilized on a CMS Sensorchip (Biacore BR-1000-12) using Biacore's Amine Coupling Kit (Biacore BR-1000-50) to a level of 10,000 Response units (RUs). Small molecule analytes at concentrations ranging from one tenth to ten times the predicted KD were injected at a high flow rate (30 μL/min). Dimethylsulfoxide (DMSO) concentrations in all samples and running buffer were 1% (v/v) or less. […] The inventors did triplicate SPR assays for each concentration.

In series [6] the test system is MCF-10A breast epithelial cell line. Briefly: Cellular proliferation assay, MCF-10A. The format is cell-based, human. Conditions: data not shown. The protocol: Two human breast cancer Cell lines and one normal breast cell line were used for this study: T47D ductal missing highlighted section in original pg. 26Type Culture Collection, Rockville, Md.). T47D and MDA-MB-231 cells were maintained in bulk culture in Dulbecco's modified Eagle medium (DMEM) supplemented with 10% heat-inactivated fetal bovine serum (FBS), 4.5 g/L glucose, 100 U/mL penicillin and […] streptomycin in a 5% CO2 atmosphere. MCF-10A cells were maintained in MEGM with other conditions same as the cancer cell lines. Cells were passaged using 0.25% trypsin and 0.02% EDTA. Cells were confirmed to be mycoplasma free by testing them with an ELISA kit (Roche-Boehringer Mannheim, Indianapolis, Ind.). The hit compounds were freshly prepared in DMSO at a stock concentration of 10 mM. For the evaluation of cellular proliferation, a standard 96-well micro-cytotoxicity assay was performed as described in reference. Briefly, the assay was set up by plating cells at 5,000-10,000 cells per well (depending on cell doubling time) for a growth period of 4 days. The identified hits were added directly to the media, dissolved in DMSO at various concentrations ranging from 1 to 200 μM. The endpoint was spectrophotometric determination of the reduction of 3-(4,5-dimethylthiazol-2-yl)-2,5-diphenyltetrazolium bromide. All assays were performed in triplicates.

The subject of series [7] is MDA-MB-468 cell line. Briefly: Cellular proliferation assay, MDA-MB-468. The format is cell-based. Conditions: Homo sapiens, printed in MDA-MB-231 column with ** footnote, read-out: IC50 (μM), MDA-MB-468 cell line used.
For series [8], the target named is GAB2 PH domain (Homo sapiens, UniProt Q9UQC2). Briefly: Follow-up experiments, GAB2 PH domain. Format: binding.
GAB2 PH domain, sequence (Q9UQC2 6-117 limits assumed): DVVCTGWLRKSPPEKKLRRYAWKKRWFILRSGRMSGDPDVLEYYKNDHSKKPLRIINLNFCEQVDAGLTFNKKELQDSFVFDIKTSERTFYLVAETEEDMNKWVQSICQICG
The mark [9] stands for this setting: competitive binding vs PtdIns(3,4,5)P3 liposomes, values with asterisk, read-out: Kn or Ki (μM) GAB1, *Ki measurement.

For `CCCCCCCCCCCCCCCCCCOC[C@H](COP(=O)(O)OC1C(O)[C@@H](O)C(O)C[C@H]1O)OC` (stereo partly drawn) [DPIEL, reference compound], the inhibition at 20 µM in series [1] came to 72%.
Turning to `O=S(=O)(NCc1csc2ccc(Cl)cc12)c1cc(S(=O)(=O)c2ccccc2)cs1` [GAB-001], the IC50 in series [2] is 40.3 ± 1.3 µM; in series [4], 23.7 ± 2.7 µM. Also, the inhibition at 20 µM in series [1] stood at 55%. For the same molecule, in series [3], the “Exp. ΔGbind” value is -6.91 kcal/mol. The Ki in series [3] (setting [9]) was 9.4 µM and 9.38 µM.
As for `Cn1cnc(S(=O)(=O)Nc2ccccc2SCCS(=O)(=O)c2ccc(Cl)cc2)c1` [GAB-002], the results for the IC50 in series [2] and in series [4] were 143 ± 11.6 µM and 138 ± 6.9 µM, respectively. Also, in series [1], the inhibition at 20 µM amounted to 32%.
In the case of `Cc1nc(-c2cnc(S(=O)(=O)N3CCN(C4c5ccccc5-c5ccccc54)CC3)s2)cs1` [GAB-003], the IC50 worked out at 85.2 ± 7.2 µM in series [2] and 13.9 ± 0.6 µM in series [4]. The inhibition at 20 µM in series [1] is 14%.
For `O=c1[nH]nc(SCc2csc(-c3ccccc3)n2)n1Cc1ccco1` [GAB-004], the IC50 in series [2] is 66.6 ± 4.6 µM; in series [4] it was 19.4 ± 2.9 µM. The inhibition at 20 µM in series [1] is 81%. Also, the “Exp. ΔGbind” value in series [3] was -7.78 kcal/mol.
With `CS(=O)(=NS(=O)(=O)c1ccc(-c2ccccn2)s1)c1ccc(Cl)cc1` (stereo not drawn) [GAB-005], the IC50 in series [2] and in series [4] was above 200 µM in each case. Moreover, the inhibition at 20 µM in series [1] is 6%.
In the case of `Cc1cc2ncc(-c3cnc(SCCS(=O)(=O)c4ccc(Cl)cc4)nc3)c(C)n2n1` [GAB-006], the inhibition at 20 µM in series [1] came out at 16%. The same molecule returned an IC50 in series [4] of 101 ± 1.8 µM.
For `CS(=O)(=O)CCSc1ncccc1C(=O)Sc1ccc(Cl)cc1Cl` [GAB-007], the values for the IC50 in series [2] and in series [4] were 4.6 ± 0.7 µM and 20.1 ± 4.3 µM, respectively. Moreover, the “Exp. ΔGbind” value is -7.93 kcal/mol in series [5] and -6.01 kcal/mol in series [3]. Besides, in series [1], the inhibition at 20 µM came to 53%. Moreover, the Ki in series [3] (SPR direct binding, values without asterisk, NB: No Binding, read-out: Kn or Ki (μM) GAB1) stood at 42.3 ± 8.9 µM.
On to `O=S(=O)(NCc1csc(-c2cccs2)n1)c1ccc(N2CCOCC2)nc1` [GAB-008], for which the values for the IC50 in series [2] and in series [4] were above 200 µM and 43.2 ± 3.2 µM, respectively. Moreover, the inhibition at 20 µM in series [1] was 8%.
Taken in the same sequence, the figures for `Cc1noc(C)c1NC(=O)NCc1csc(-c2cccs2)n1` [GAB-009] were 163 ± 6 µM, 97.6 ± 6.1 µM and 38%.
As to `Cc1onc(-c2ccccc2)c1-c1nc(CSc2nc3ccccc3[nH]2)no1` [GAB-010], the figures for the IC50 in series [2] and in series [4] were 66 ± 4.4 µM and 23.8 ± 4.2 µM, respectively. Also, the “Exp. ΔGbind” value in series [5] was -9.51 kcal/mol. The inhibition at 20 µM in series [1] was found to be 92%.
With `Cn1c(Cc2ccsc2)nnc1SCC(=O)Nc1cc(Cl)cc(Cl)c1` [GAB-011], the IC50 in series [2] and in series [4] was above 200 µM each time. In addition, the inhibition at 20 µM in series [1] is 24%.
On to `O=C(O)c1ccccc1C(=O)Nc1ccccc1SCCS(=O)(=O)c1ccc(Cl)cc1` [GAB-012], for which, in series [2], the “killing of MDA-MB-231 at 50 μM” value is “did not effectively kill” and the IC50 is above 200 µM. The inhibition at 20 µM in series [1] was 43%. The “toxicity to MCF-10A at 100 μM” value in series [6] is recorded as “toxic”. In addition, in series [4], the “killing of T47D at 50 μM” value is listed as “did not effectively kill” and the half-maximal inhibitory concentration (IC50) is 119 ± 3.6 µM.
Turning to `COc1cc(NS(=O)(=O)c2ccc(NS(=O)(=O)c3c(C)noc3C)cc2)nc(OC)n1` [GAB-013], in series [2], the “killing of MDA-MB-231 at 50 μM” value was “did not effectively kill” and the IC50 is above 200 µM. The inhibition at 20 µM in series [1] amounted to 27%. Further, the “toxicity to MCF-10A at 100 μM” value in series [6] is “toxic”. In series [4], the “killing of T47D at 50 μM” value is “did not effectively kill” and the IC50 is above 200 µM.
Take `Cc1nnc(NS(=O)(=O)c2ccc(NS(=O)(=O)c3ccc4ccccc4c3)cc2)s1` [GAB-014]: the IC50 was determined as 69.9 ± 0.1 µM in series [7] and 178 ± 3.9 µM in series [4]. The inhibition at 20 µM in series [1] turned out to be 42%.
Take `CCCCCCCCCCCCc1ccc(S(=O)(=O)Nc2nnc(CC(=O)O)s2)cc1` [GAB-015]: the inhibition at 20 µM in series [1] (T47D, 4 h) amounted to 77%. Also, the Ki in series [3] (setting [9]) stood at 13.1 ± 1.5 µM. The midpoint of inhibition in series [4], the IC50, lay at 125 ± 5.4 µM.
With `CCCCCCCCCCCCc1ccc(S(=O)(=O)Nc2nnc(CC(=O)OCC)s2)cc1` [GAB-016], the “Exp. ΔGbind” value in series [5] was -9.38 kcal/mol; in series [3] it was -8.31 kcal/mol. The inhibition at 20 µM in series [1] (T47D, 4 h) is above 80%. Moreover, the “targeting of GAB2 PH domain” value in series [8] is listed as “targets GAB2 PH domain”.
In the case of `CCCCCCCCCCCCc1ccc(S(=O)(=O)Nc2nnc(C(=O)OCC)s2)cc1` [GAB-017], in series [1] (T47D, 4 h), the inhibition at 20 µM was above 80%. Also, the “Exp. ΔGbind” value in series [3] was -8.47 kcal/mol.
As to `CCCCCCCCCCCCc1ccc(S(=O)(=O)Nc2nnc(S(N)(=O)=O)s2)cc1` [GAB-018], the “killing of MDA-MB-231 at 50 μM” value in series [2] was “did not effectively kill”. In series [1] (T47D, 4 h), the inhibition at 20 µM was 71%. Besides, in series [3] (setting [9]), the Ki worked out at 36.6 ± 5 µM. In series [4], the “killing of T47D at 50 μM” value is reported as “did not effectively kill” and half-maximal inhibition (IC50) was put at 185 ± 2.5 µM.
Regarding `CCc1ccc(C(=O)OC)cc1CSc1nnc(-c2ccc(C(F)(F)F)cc2)n1Cc1ccoc1` [GAB-019], in series [1], the inhibition at 20 µM was determined as 91%. This molecule displayed an IC50 in series [4] of 39.4 ± 6.2 µM.
`CCCCCCCCCCCCc1ccc(S(=O)(=O)Nc2nncs2)cc1` [GAB-020]: in series [1], the inhibition at 20 µM is 87%.
